# Active and inactive are the calls of the source.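 How the source made its calls: active means compounds giving half or more protection of infected cells from virus-caused growth loss, again on retest; inactive means the rest.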 Where a SMILES comes first, the peptide text is derived from it. [ ]: non-standard residue; d: D form. The star is where a group is joined. Phe(2-OMe) = COc1ccccc1C[CH](N)C(=O)O; Cbz = O=C(OCc1ccccc1)*; OBn = c1ccc(CO*)cc1
# System: CEM cells HIV-1 protection, formazan growth assay
# Assay: NCI AIDS Antiviral Assay
# Conditions: for IC50: measured here: growth of uninfected CEM cells
# In short: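 Human CEM cells, uninfected and HIV-1-infected, exposed to five drug concentrations; growth measured by soluble formazan assay and scored as percent protection from infection, with protecting compounds retested.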
Compound,EC50 [µM],IC50 [µM],outcome
CCN(CC)C(=S)N/N=C(\C)c1cccc(C)n1,> 2,0.0132,
CN1C(=O)C(C)(O)Sc2ccccc21 (stereo not drawn),> 1200,501,
CCCCCC(/C=C/[C@@H]1[C@@H](C(O)CCCCCC(=O)OC)C(=O)C[C@H]1O[Si](C)(C)C(C)(C)C)OCOCCOC (stereo partly drawn),,,inactive
O=c1n(C2CCCCC2)c(=C(Cl)Cl)c(=C(Cl)Cl)n1C1CCCCC1,> 200,> 200,
CCCCN(C)CC(C(C)=O)C(c1ccccc1)c1c(O)c2ccccc2oc1=O (stereo not drawn),> 67.6,60.3,
CN(C)/N=C1\CC(c2ccccc2)C(C#N)(C#N)C1(C#N)C#N (stereo not drawn),> 200,5.62,
CCCC(C)SP(=S)(SC(C)CCC)SC(C)CCC (stereo not drawn),> 200,> 200,
CC(=O)NNc1nc(C)c(C(/C=C/c2ccccc2O)=N/N=C(N)N)s1,> 89.1,> 89.1,
C1CCCN(NC2=NCCO2)CC1,93.3,1000,
C1=CC2SSSC2C1 (stereo not drawn),> 251,> 251,
CN(C)CCOc1cccc2c1C(=O)c1ccccc1C2=O,,,inactive
CC(=O)[O-].COc1cccc(/C=N\[N-]C(=O)c2ccncc2)c1.[Co+2].[OH3+].[OH3+].c1ccncc1,> 100,57.5,
CN(C)c1ccc2c(c1)-c1cc(N(C)C)ccc1C2=CC=C1C(=O)NC(=O)NC1=O,> 3.39,> 3.39,
CCOC(=O)C1CC(O)C(=O)N1C (stereo not drawn),,,inactive
CCN(CC)CC[NH-].O=C([O-])C(=O)[O-].O=C([O-])C(=O)[O-].[Co+3].[K+],> 200,148,
COc1ccc(/C=C/c2cc(OC)c(OC)c(OC)c2)cc1O[Si](C)(C)C(C)(C)C,> 8.71,0.479,
Cc1cccc(NC(=S)Nc2ccc([N+](=O)[O-])cc2)n1,> 200,> 200,
O=C(c1ccco1)N1CCCN(C(=O)c2ccco2)C1=S,> 200,28.2,
COc1cc([N+](=O)[O-])c(S(=O)(=O)O)cc1-n1nc(C(=O)Nc2ccccc2)n[n+]1-c1cc(S(=O)(=O)[O-])c([N+](=O)[O-])cc1OC,> 372,288,
O=C1NC2(CCCCC2)NC12CCCCC2,> 135,> 135,
C#CCN(N=O)C(=O)NC(CCCNC(=O)OCc1ccccc1)C(=O)OCc1ccccc1 (stereo not drawn),> 28.8,> 28.8,
O=C1C(=O)c2ccccc2C(O)=C1Nc1ccc(Cl)cc1,,,inactive

Compound,EC50 [µM],IC50 [µM],outcome
O=c1[nH]cnc2c1nnn2CCCn1nnc2c(=O)[nH]cnc21,> 200,> 200,
Cc1nc(Nc2ccc(Cl)c(Cl)c2)sc1C(=O)/C=C/c1ccc2c(c1)OCO2,> 200,13.5,
CC(C)N=C(NC#N)NS(=O)(=O)c1cnccc1NC1CCCCCCC1,> 200,> 200,
O/N=C/c1cc2c(cc1Br)OCO2,> 155,> 155,
CCCCC[C@@H]1CCCC2C1CC[C@@H](CC/C=C/C(=O)OC)N2C(=O)OC(C)C(Cl)(Cl)Cl (stereo partly drawn),,,inactive
COC(=CN=Nc1nc(C#N)c(C#N)[nH]1)OC,> 214,162,
Nc1cnn2nnnc2c1Cl,> 200,> 200,
CC(=O)Nc1ccc(SSc2ccc(NC(C)=O)c3cccnc23)c2ncccc12,> 200,2.34,
COc1cc(N=Nc2ccccc2)cc(/C=N/NC(N)=S)c1O,,,inactive
CCCCCCc1cc2cc(-c3csc(CC#N)n3)c(=O)oc2cc1O,> 200,> 200,
COc1ccc(CCN2C(=O)c3cccc4c(Sc5ccccc5[N+](=O)[O-])ccc(c34)C2=O)cc1OC,> 200,> 200,
CCOC(=O)c1cc2c(=O)cccnc2o1,> 52.5,> 52.5,
CCOC(=O)Cc1csc2[n+]1C(=O)/C(=C/c1ccc(OC)c(OC)c1)S2,> 200,20,
[N-]=[N+]=Nc1c([N+](=O)[O-])c(=O)n2c3c(cccc13)CCC2,,,inactive
O=[N+]([O-])c1cc(I)cc(/C=N/NS(=O)(=O)c2ccc(Cl)cc2)c1O,> 372,66.1,
C/C(CC(C)C)=N/Nc1nc(C)cc(=O)[nH]1,> 200,> 200,
CC(=O)/C=C/c1ccco1,> 26.3,> 26.3,
O=C(/C=C/c1ccsc1)c1cccs1,> 200,3.55,
O=c1cc(N=P(c2ccccc2)(c2ccccc2)c2ccccc2)n(-c2ccccc2)c(=O)n1-c1ccccc1,,,inactive
COCCCCCCCCCCC(=O)O,> 200,> 200,
Cc1cc(=O)n2nc(CSc3n[nH]c(=S)s3)sc2n1,> 200,> 200,
O=c1[nH]c2nc3ccccc3c(=O)n2nc1Cc1ccccc1,> 44.7,> 44.7,

Compound,EC50 [µM],IC50 [µM],outcome
Cc1ccc(N2C3=C(CC4=C2CC(C)(C)CC4=O)C(=O)CC(C)(C)C3)cc1,> 100,> 100,
COc1ccc(N2C(=O)c3cccnc3S2(=O)=O)cc1,> 200,> 200,
COc1ccc(C2Nc3ccccc3NC3CC(C)(C)CC(=O)C32)cc1 (stereo not drawn),> 257,178,
CN(C)c1ccc(C=Nc2ccc(Oc3ccc(Cl)cc3)c(Cl)c2)cc1,> 200,28.2,
COc1ccc(C2CCC(Cl)(OC)CC2C=O)cc1 (stereo not drawn),> 245,155,
CC(C)C(=O)CC(Sc1ccc(N)cc1)c1ccccc1 (stereo not drawn),> 200,87.1,
CN1CCC2(CC1)C(=O)N(N1CCCCCC1)C(=O)N2c1ccccc1,> 200,> 200,
COc1cc2cc[n+]3c4cc(OC)c(OC)cc4c(C)cc3c2cc1OC,,,inactive
COC(=O)C(Cc1ccccc1OC)NC(=O)C(CC(=O)OCc1ccccc1)NC(=O)OCc1ccccc1 (stereo not drawn) (Cbz-Asp(OBn)-[Phe(2-OMe)]-OMe; configuration not given here),> 200,30.2,
O=c1oc2ccccc2c(O)c1C(c1cccc(C(c2c(O)c3ccccc3oc2=O)c2c(O)c3ccccc3oc2=O)c1)c1c(O)c2ccccc2oc1=O,42.7,> 100,
CCCCCCCCCCCCCCCC(=O)NCC(COP(=O)([O-])OCC[N+](C)(C)C)OC (stereo not drawn),,,inactive
S=C1SC(=Nc2ccccc2)C(=Nc2ccccc2)N1c1ccccc1,> 200,91.2,
CCOC(=O)c1c[nH]c2cc(OCC3CC3)c(OCC3CC3)cc2c1=O,> 200,> 200,
CN(C)c1ccc(N=Nc2ccc3nc[nH]c3c2)cc1,> 200,41.7,
CC/C=C/c1cc2cc[nH]c2c2c1C(C)C[C@@H]2C (stereo partly drawn),,,inactive
NC(=Nc1ccccc1)C(F)(F)F,> 200,> 200,
CCCCCCCCCCCC(=O)OCCOCCOCCOCCOCCOCCOCCOCCOCCO,> 200,145,
C#CCNC(Cc1cnc[nH]1)C(=O)O (stereo not drawn),> 200,> 200,
CC1CN=C(N(C(=O)Nc2ccc(F)c(Cl)c2)c2ccccc2)S1 (stereo not drawn),,,inactive
S=CN1CCN(C=S)CC1,,,inactive
COc1cc2c3cc1Oc1c(OC)c(OC)cc4c1[C@H](Cc1cc5c(c(c1)Oc1ccc(cc1)CC3N(C)CC2)OCO5)N(C)CC4 (stereo partly drawn),,,inactive
C[C@H](NC(=O)n1c2ccccc2c2ccccc21)C(=O)O,> 891,234,

# From PubChem BioAssay AID179 (DTP/NCI, 2004)
